Assay results published in patent publication US9346815B2, “5-chloro-2-difluoromethoxyphenyl pyrazolopyrimidine compounds, compositions and methods of use thereof” (Genentech, Inc., priority 2014, dated 2016).

Key:
[1] = tested on: JAK1-dependent STAT6 phosphorylation downstream of IL-13 stimulation in BEAS-2B human bronchial epithelial cells; assay: JAK1 pathway assay in BEAS-2B cells (IL-13-pSTAT6, MSD); type: cell-based; conditions: read-out: IL13-pSTAT6 EC50 (uM)_BEAS-2B
Procedure, shortened: (§1)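 BEAS-2B: 1 h, complete growth medium, 100,000 cells/well. TF-1: 30 min, serum-free OptiMEM after overnight GM-CSF starvation, 300,000 cells/well. EC50 reported.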

[2] = tested on: JAK1-dependent STAT6 phosphorylation downstream of IL-13 stimulation in TF-1 human erythroleukemia cells; assay: JAK1 pathway assay in TF-1 cells (IL-13-pSTAT6, MSD); type: cell-based; conditions: Homo sapiens, TF-1, TF-1 cells, read-out: IL13-pSTAT6 EC50_TF-1
Procedure, shortened: as §1

[3] = Clearance assay: mouse intravenous (IV) clearance; type: in vivo; conditions: female BALB/c mice; for IV Mouse CL, % of liver blood flow: single IV dose of 1 mg/kg, clearance as % of mouse liver blood flow; for clearance: mouse, plasma, single IV dose of 1 mg/kg via the tail vein, read-out: IV Mouse CL
Description: In certain instances high systemic clearance of a drug substance may be of benefit. For example, in the treatment of pulmonary diseases it may be beneficial to have high drug concentrations in the lung, with lower concentrations in the bloodstream or peripheral organs. In such cases, it may be advantageous to administer a drug substance with high systemic clearance via the inhaled delivery route. This approach may maximize pharmacologic activity of the drug substance in the lung while minimizing the possibility of on-target toxicity elsewhere in the body. The functional groups appended to the 5-chloro-2-difluoromethoxyphenyl pyrazolopyrimidine scaffold affect systemic clearance.
Female BALB/c mice were obtained from Charles River Labs (Hollister, Calif. USA). Twelve animals were given a single IV dose of 1 mg/kg of compounds via the tail vein. A representative dose solution was prepared as follows: the compound was dissolved in a mixture of 5% dimethylsulfoxide (DMSO), 35% polyethylene glycol (PEG 400), and 60% water (v/v/v), respectively, and administered at a dosing volume of 5 mL/kg. Mice weighed approximately 20-25 g at the start of the study. After intravenous administration of compounds, each animal was bled twice via retro-orbital and cardiac puncture. PK time points were collected at 2 min, 5 min, 15 min, 30 min, 1 hr, 2 hr, 4 hr, and 8 hr post-dose. Plasma samples were stored at approximately −80° C. until thawed for LC-MS/MS analysis. PK data analysis was performed on mean plasma concentration-time data and PK parameters were determined by non compartmental methods using WinNonlin® Enterprise, version 5.2.1 (Pharsight Corporation; Mountain View, Calif.).

[4] = biological target: isolated recombinant JAK1 kinase domain (Homo sapiens (Human), UniProt P23458); assay: JAK1 enzyme assay (Caliper LabChip, peptide phosphorylation); type: biochemical; conditions: isolated recombinant JAK1 kinase domain, 25 μM ATP
isolated recombinant JAK1 kinase domain, sequence (P23458 875-1153): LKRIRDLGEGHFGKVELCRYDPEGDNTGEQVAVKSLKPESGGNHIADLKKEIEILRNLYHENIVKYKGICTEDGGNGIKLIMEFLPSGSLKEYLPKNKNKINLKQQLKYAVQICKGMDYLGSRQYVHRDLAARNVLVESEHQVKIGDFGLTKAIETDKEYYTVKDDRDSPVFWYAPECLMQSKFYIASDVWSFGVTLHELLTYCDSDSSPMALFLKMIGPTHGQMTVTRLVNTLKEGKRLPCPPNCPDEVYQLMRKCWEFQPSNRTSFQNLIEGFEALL

[5] = biological target: isolated recombinant JAK2 kinase domain (Homo sapiens (Human), UniProt O60674); assay: JAK2 enzyme assay (Caliper LabChip, peptide phosphorylation); type: biochemical; conditions: 25 μM ATP
isolated recombinant JAK2 kinase domain, sequence (O60674 849-1124): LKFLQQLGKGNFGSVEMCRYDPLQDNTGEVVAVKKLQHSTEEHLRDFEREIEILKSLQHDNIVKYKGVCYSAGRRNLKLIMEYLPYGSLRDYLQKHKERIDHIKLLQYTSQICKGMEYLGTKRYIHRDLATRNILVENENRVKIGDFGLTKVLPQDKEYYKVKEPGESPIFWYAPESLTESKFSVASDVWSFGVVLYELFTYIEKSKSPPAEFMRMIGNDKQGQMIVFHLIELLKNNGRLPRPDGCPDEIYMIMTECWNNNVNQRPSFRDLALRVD

Compound | EC50 [2] [nM] | IV Mouse CL, % of liver blood flow [3] [%] | clearance [3] [mL/min/kg] | Ki [4] [nM] | Ki [5] [nM] | EC50 [1] [µM]
CCN1CCN(C(=O)Cn2cc(NC(=O)c3cnn4cccnc34)c(-c3cc(Cl)ccc3OC(F)F)n2)CC1 [Example 233, Pyrazolo[1,5-a]pyrimidine-3-carboxylic acid {3-(5-chloro-2-difluoromethoxy-phenyl)-1-[2-(4-ethyl-piperazin-1-yl)-2-oxo-ethyl]-1H-pyrazol-4-yl}-amide] | 10 | >100 | 153 | 0.78 | 1.43 | 0.0181
CN1CCN(c2nc(-c3cc(Cl)ccc3OC(F)F)c(NC(=O)c3cnn4cccnc34)s2)CC1 [Example 205, Pyrazolo[1,5-a]pyrimidine-3-carboxylic acid [4-(5-chloro-2-difluoromethoxy-phenyl)-2-(4-methyl-piperazin-1-yl)-thiazol-5-yl]-amide] | 4.4 | 51 | 46 | 0.8 | 0.58 | 0.0338
O=C(Nc1cn(CC(=O)N2CC=CCC2)nc1-c1cc(Cl)ccc1OC(F)F)c1cnn2cccnc12 [Example 284, N-[3-[5-chloro-2-(difluoromethoxy)phenyl]-1-[2-(3,6-dihydro-2H-pyridin-1-yl)-2-oxo-ethyl]pyrazol-4-yl]pyrazolo[1,5-a]pyrimidine-3-carboxamide] | 1.6 | >100 | 219 | 0.15 | 0.37 | 0.0125
O=C(Nc1cn(CC(=O)N2CCC(CN3CCOCC3)CC2)nc1-c1cc(Cl)ccc1OC(F)F)c1cnn2cccnc12 [Example 348, N-[3-[5-chloro-2-(difluoromethoxy)phenyl]-1-[2-[4-(morpholin-4-ylmethyl)piperidin-1-yl]-2-oxoethyl]-1H-pyrazol-4-yl]pyrazolo[1,5-a]pyrimidine-3-carboxamide] |  | >100 | 143 | 0.4 | 1.02 | 0.012
Nc1nn2cccnc2c1C(=O)Nc1cn(C2CCNCC2)nc1-c1cc(Cl)ccc1OC(F)F [Example 2, 2-Amino-pyrazolo[1,5-a]pyrimidine-3-carboxylic acid [3-(5-chloro-2-difluoromethoxy-phenyl)-1-piperidin-4-yl-1H-pyrazol-4-yl]-amide] | 5.2 | >100 | 580 | 0.72 | 0.19 | 0.0195
CSCCN1CCN(C(=O)Cn2cc(NC(=O)c3cnn4cccnc34)c(-c3cc(Cl)ccc3OC(F)F)n2)CC1 [Example 372, N-[3-[5-chloro-2-(difluoromethoxy)phenyl]-1-(2-[4-[2-(methylsulfanyl)ethyl]piperazin-1-yl]-2-oxoethyl)-1H-pyrazol-4-yl]pyrazolo[1,5-a]pyrimidine-3-carboxamide] |  | >100 | 93 | 0.25 | 0.51 | 0.0197
CCOC(=O)CN1CCN(C(=O)Cn2cc(NC(=O)c3cnn4cccnc34)c(-c3cc(Cl)ccc3OC(F)F)n2)CC1 [Example 397, ethyl 2-[4-(2-[3-[5-chloro-2-(difluoromethoxy)phenyl]-4-[pyrazolo[1,5-a]pyrimidine-3-amido]-1H-pyrazol-1-yl]acetyl)piperazin-1-yl]acetate] |  | >100 | 141 |  | 0.77 | 0.027
N#CC1(CNC2CCN(C(=O)Cn3cc(NC(=O)c4cnn5cccnc45)c(-c4cc(Cl)ccc4OC(F)F)n3)CC2)CC1 [Example 468, N-(3-(5-chloro-2-(difluoromethoxy)phenyl)-1-(2-(4-(((1-cyanocyclopropyl)methyl)amino)piperidin-1-yl)-2-oxoethyl)-1H-pyrazol-4-yl)pyrazolo[1,5-a]pyrimidine-3-carboxamide] |  | >100 | 140 | 0.36 | 0.92 | 0.006
O=C(Nc1cn(CCNCc2ccccc2)nc1-c1cc(Cl)ccc1OC(F)F)c1cnn2cccnc12 [Example 313, N-[1-[2-(benzylamino)ethyl]-3-[5-chloro-2-(difluoromethoxy)phenyl]-1H-pyrazol-4-yl]pyrazolo[1,5-a]pyrimidine-3-carboxamide] |  | 57 | 51 | 0.21 | 0.21 | 0.0218
CN(C)CCOC(=O)C1CCN(C(=O)Cn2cc(NC(=O)c3cnn4cccnc34)c(-c3cc(Cl)ccc3OC(F)F)n2)CC1 [Example 338, 2-(dimethylamino)ethyl 1-(2-[3-[5-chloro-2-(difluoromethoxy)phenyl]-4-[pyrazolo[1,5-a]pyrimidine-3-amido]-1H-pyrazol-1-yl]acetyl)piperidine-4-carboxylate] |  | >100 | > 200 | 0.36 | 1.16 | 0.0177

Continued, in another order:

EC50 [2] [nM] | IV Mouse CL, % of liver blood flow [3] [%] | clearance [3] [mL/min/kg] | Ki [4] [nM] | Ki [5] [nM] | Compound | EC50 [1] [µM]
3.8 | >100 | 178 | 0.79 | 1.81 | CN(Cc1ccccc1)C1CCN(C(=O)Cn2cc(NC(=O)c3cnn4cccnc34)c(-c3cc(Cl)ccc3OC(F)F)n2)CC1 [Example 98, N-[1-[2-[4-[benzyl(methyl)amino]-1-piperidyl]-2-oxo-ethyl]-3-[5-chloro-2-(difluoromethoxy)phenyl]pyrazol-4-yl]pyrazolo[1,5-a]pyrimidine-3-carboxamide] | 0.0381
2.3 | >100 | 222 | 0.33 | 0.69 | CN(CC(C)(F)F)C1CCN(C(=O)Cn2cc(NC(=O)c3cnn4cccnc34)c(-c3cc(Cl)ccc3OC(F)F)n2)CC1 [Example 134, N-[3-[5-chloro-2-(difluoromethoxy)phenyl]-1-[2-[4-[2,2-difluoropropyl(methyl)amino]-1-piperidyl]-2-oxo-ethyl]pyrazol-4-yl]pyrazolo[1,5-a]pyrimidine-3-carboxamide] | 0.0118
15.3 | 61 | 55 | 0.86 | 1.66 | CN(CCc1ccccc1)C1CCN(C(=O)Cn2cc(NC(=O)c3cnn4cccnc34)c(-c3cc(Cl)ccc3OC(F)F)n2)CC1 [Example 85, N-[3-[5-chloro-2-(difluoromethoxy)phenyl]-1-[2-[4-[methyl(2-phenylethyl)amino]-1-piperidyl]-2-oxo-ethyl]pyrazol-4-yl]pyrazolo[1,5-a]pyrimidine-3-carboxamide] | 0.1
 | >100 | 133 | 0.24 | 0.63 | O=C(Nc1cn(CC(=O)N2CCC(O)CC2)nc1-c1cc(Cl)ccc1OC(F)F)c1cnn2cccnc12 [Example 278, N-[3-[5-chloro-2-(difluoromethoxy)phenyl]-1-[2-(4-hydroxy-1-piperidyl)-2-oxo-ethyl]pyrazol-4-yl]pyrazolo[1,5-a]pyrimidine-3-carboxamide] | 0.005
 | 80 | 72 | 0.27 | 0.74 | CC(C)(C#N)CNC1CCN(C(=O)Cn2cc(NC(=O)c3cnn4cccnc34)c(-c3cc(Cl)ccc3OC(F)F)n2)CC1 [Example 466, N-(3-(5-chloro-2-(difluoromethoxy)phenyl)-1-(2-(4-(2-cyano-2-methyl-propylamino)piperidin-1-yl)-2-oxoethyl)-1H-pyrazol-4-yl)pyrazolo[1,5-a]pyrimidine-3-carboxamide] | 0.014
14.6 | >100 | 205 | 0.89 |  | CN(C)C1CCN(C(=O)Cn2cc(NC(=O)c3cnn4cccnc34)c(-c3cc(Cl)ccc3OC(F)F)n2)CC1 [Example 67, N-[3-[5-chloro-2-(difluoromethoxy)phenyl]-1-[2-[4-(dimethylamino)-1-piperidyl]-2-oxo-ethyl]pyrazol-4-yl]pyrazolo[1,5-a]pyrimidine-3-carboxamide] | 0.0715
